Numbers after ± are expanded uncertainties.
Conditions: 283.16 K, Liquid, Vibrating tube method

Measured: mass density

CCCC(=O)OCC(COC(=O)CCC)(COC(=O)CCC)COC(=O)CCC [pentaerythritol tetrabutyrate]
1063.5 ± 1.3 kg/m3: 7488.6 kPa | 7814.3 kPa
1065.2 ± 1.3 kg/m3: 10408 kPa | 10459 kPa | 10494 kPa | 10526 kPa | 10561 kPa | 10578 kPa | 10597 kPa | 10646 kPa | 10666 kPa | 10682 kPa | 10755 kPa | 10845 kPa
1065.1 ± 1.3 kg/m3: 10145 kPa | 10260 kPa | 10293 kPa | 10377 kPa | 10392 kPa | 10443 kPa | 10478 kPa
1065.3 ± 1.3 kg/m3: 10510 kPa | 10545 kPa | 10613 kPa | 10630 kPa | 10699 kPa | 10735 kPa | 10773 kPa | 10806 kPa | 10863 kPa | 10990 kPa
1063.7 ± 1.3 kg/m3: 7783.9 kPa | 7838.8 kPa | 7861.2 kPa | 7886.6 kPa | 7930.2 kPa | 7952.2 kPa | 7978.4 kPa | 8000.3 kPa | 8022.4 kPa | 8071.7 kPa | 8166.8 kPa
1065 ± 1.3 kg/m3: 10121 kPa | 10238 kPa | 10311 kPa | 10327 kPa | 10342 kPa | 10358 kPa | 10427 kPa
1064.5 ± 1.3 kg/m3: 9159 kPa | 9349.3 kPa | 9379.8 kPa
1066.4 ± 1.3 kg/m3: 12584 kPa | 12607 kPa | 12659 kPa | 12682 kPa | 12758 kPa | 12862 kPa
1062.6 ± 1.3 kg/m3: 6379.3 kPa
1066 ± 1.3 kg/m3: 12132 kPa
1066.3 ± 1.3 kg/m3: 12316 kPa | 12338 kPa | 12365 kPa | 12410 kPa | 12437 kPa | 12483 kPa | 12510 kPa | 12533 kPa | 12556 kPa | 12630 kPa | 12705 kPa | 12734 kPa
1064.4 ± 1.3 kg/m3: 9067 kPa | 9095.4 kPa | 9222.8 kPa | 9252.1 kPa | 9282.2 kPa | 9318.6 kPa | 9411 kPa
1065.8 ± 1.3 kg/m3: 11499 kPa | 11541 kPa | 11584 kPa | 11604 kPa | 11624 kPa | 11643 kPa
1063.8 ± 1.3 kg/m3: 8048.9 kPa | 8094.5 kPa | 8121.4 kPa | 8194.2 kPa | 8269.4 kPa | 8316.5 kPa
1063 ± 1.3 kg/m3: 6662.1 kPa | 6678.8 kPa | 6685.9 kPa | 6693.8 kPa | 6710.6 kPa | 6725.8 kPa | 6750.9 kPa | 6774.9 kPa | 6784.2 kPa | 6799.4 kPa | 6815.3 kPa | 6822.2 kPa | 6845.5 kPa | 6861.6 kPa | 6890.3 kPa | 6919.1 kPa | 6948.8 kPa
1066.6 ± 1.3 kg/m3: 12784 kPa | 12911 kPa | 12940 kPa | 12965 kPa | 12994 kPa
1062.9 ± 1.3 kg/m3: 6401.4 kPa | 6423.7 kPa | 6491.8 kPa | 6505.9 kPa | 6522.2 kPa | 6529.1 kPa | 6543.9 kPa | 6552.9 kPa | 6560.5 kPa | 6567.3 kPa | 6583.2 kPa | 6590.8 kPa | 6598.2 kPa | 6606.8 kPa | 6614.3 kPa | 6621.5 kPa | 6630.5 kPa | 6638.3 kPa | 6653.6 kPa | 6669.8 kPa | 6718.2 kPa | 6759.3 kPa | 6766.9 kPa
1064.1 ± 1.3 kg/m3: 8553.2 kPa | 8631.2 kPa | 8719.9 kPa | 8799 kPa | 8831.6 kPa
1063.9 ± 1.3 kg/m3: 8144.2 kPa | 8217.7 kPa | 8241.7 kPa | 8340.2 kPa | 8369.1 kPa | 8393.5 kPa | 8418.1 kPa | 8448 kPa
1062.8 ± 1.3 kg/m3: 6243.9 kPa | 6265.2 kPa | 6300.1 kPa | 6308.2 kPa | 6314.8 kPa | 6336.4 kPa | 6343.5 kPa | 6350.2 kPa | 6357.3 kPa | 6372 kPa | 6408.5 kPa | 6416.8 kPa | 6432.1 kPa | 6439.2 kPa | 6446.1 kPa | 6453.2 kPa | 6460.5 kPa | 6469.1 kPa | 6476 kPa | 6483.3 kPa | 6498.7 kPa | 6513.4 kPa | 6536.5 kPa | 6575.9 kPa | 6645.9 kPa | 6735.1 kPa
1063.6 ± 1.3 kg/m3: 7758.9 kPa | 7908.5 kPa
1064.2 ± 1.3 kg/m3: 8501.9 kPa | 8746.3 kPa | 8772.8 kPa | 8858.5 kPa | 8920.4 kPa | 8949 kPa
1063.1 ± 1.3 kg/m3: 6701.4 kPa | 6742.9 kPa | 6808.2 kPa | 6830 kPa | 6835.8 kPa | 6840.7 kPa | 6983.9 kPa | 7043.3 kPa | 7172.4 kPa
1065.5 ± 1.3 kg/m3: 10900 kPa | 11028 kPa | 11067 kPa | 11122 kPa | 11144 kPa | 11180 kPa | 11220 kPa
1066.5 ± 1.3 kg/m3: 12809 kPa | 12838 kPa | 12886 kPa
1064.7 ± 1.3 kg/m3: 9447.8 kPa | 9478.5 kPa | 9788.8 kPa | 9864.7 kPa
1065.6 ± 1.3 kg/m3: 11202 kPa | 11238 kPa | 11279 kPa | 11316 kPa | 11479 kPa
1066.2 ± 1.3 kg/m3: 12063 kPa | 12106 kPa | 12224 kPa | 12246 kPa | 12294 kPa | 12388 kPa | 12460 kPa
1064.3 ± 1.3 kg/m3: 8886.1 kPa | 8976.4 kPa | 9004.9 kPa | 9038.9 kPa | 9129.5 kPa | 9187.9 kPa
1066.1 ± 1.3 kg/m3: 12038 kPa | 12084 kPa | 12154 kPa | 12175 kPa | 12198 kPa | 12268 kPa
1062.7 ± 1.3 kg/m3: 6250.7 kPa | 6257.4 kPa | 6271.9 kPa | 6278.8 kPa | 6321.7 kPa | 6328.1 kPa | 6365.3 kPa | 6387.5 kPa | 6394.3 kPa
1065.7 ± 1.3 kg/m3: 11162 kPa | 11298 kPa | 11339 kPa | 11522 kPa | 11561 kPa
1064 ± 1.3 kg/m3: 8472.3 kPa | 8527.3 kPa | 8580.4 kPa | 8605.5 kPa | 8662.6 kPa | 8688.3 kPa
1064.8 ± 1.3 kg/m3: 9755.2 kPa | 9896.4 kPa | 9960.2 kPa | 10025 kPa
1063.3 ± 1.3 kg/m3: 7348.1 kPa
1064.9 ± 1.3 kg/m3: 9925.9 kPa | 9989.6 kPa | 10056 kPa | 10087 kPa | 10167 kPa | 10189 kPa | 10215 kPa | 10278 kPa
1063.2 ± 1.3 kg/m3: 7013.2 kPa | 7073.9 kPa | 7111.3 kPa | 7141.9 kPa | 7231.8 kPa | 7377.4 kPa
1065.9 ± 1.3 kg/m3: 11970 kPa
1065.4 ± 1.3 kg/m3: 10719 kPa | 10789 kPa | 10827 kPa | 10879 kPa | 10917 kPa | 10934 kPa | 10955 kPa | 10972 kPa | 11010 kPa | 11046 kPa | 11086 kPa | 11104 kPa | 11257 kPa
1063.4 ± 1.3 kg/m3: 7286.9 kPa | 7519.7 kPa
1064.6 ± 1.3 kg/m3: 9515.9 kPa | 9547.2 kPa | 9578.8 kPa | 9616.9 kPa | 9649.2 kPa | 9681.5 kPa | 9714.5 kPa | 9830.3 kPa
